Patent US6737383B1, “Herbicidal oxadiazolidines” (priority 1999, dated 2004)

Tests used:
[1] = test system: wheat; experiment: Test B pre/postemergence wheat; type: in vivo, Triticum aestivum; conditions: for Wheat plant response rating: scale of 0 to 10 where 0 is no effect and 10 is complete control
How it was run: (§1)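 Test chemicals in a non-phytotoxic solvent mixture with surfactant were sprayed preemergence onto planted seeds and postemergence onto plants 2 to 18 cm tall (1- to 4-leaf stage). After twelve to sixteen days in a greenhouse, injury was visually rated against untreated controls from 0 (no effect) to 10 (complete control).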

[2] = test system: cocklebur; experiment: Test B pre/postemergence cocklebur; type: in vivo, Xanthium strumarium; conditions: for Cocklebur plant response rating: scale of 0 to 10 where 0 is no effect and 10 is complete control
How it was run: as §1

[3] = test system: blackgrass; experiment: Test B pre/postemergence blackgrass; type: in vivo, Alopecurus myosuroides
How it was run: as §1

[4] = test system: giant foxtail; experiment: Test B pre/postemergence giant foxtail; type: in vivo, Setaria faberii; conditions: for Giant foxtail plant response rating: scale of 0 to 10 where 0 is no effect and 10 is complete control
How it was run: as §1

[5] = test system: soybean; experiment: Test B pre/postemergence soybean; type: in vivo, Glycine max; conditions: for Soybean plant response rating: scale of 0 to 10 where 0 is no effect and 10 is complete control
How it was run: as §1

[6] = test system: bamyardgrass; experiment: Test B flood test barnyardgrass; type: in vivo, Echinochloa crus-galli
How it was run: (§2)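 Each value is a visual injury score relative to controls, with 10 meaning complete control and 0 no effect. Evaluation took place twelve to sixteen days after the 2-leaf-stage plants were treated and kept in the greenhouse.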

[7] = test system: duck salad; experiment: Test B flood test duck salad; type: in vivo, Heteranthera limosa
How it was run: as §2

[8] = test system: morningglory; experiment: Test B pre/postemergence morningglory; type: in vivo, Ipomoea hederacea; conditions: for Morningglory plant response rating: scale of 0 to 10 where 0 is no effect and 10 is complete control
How it was run: as §1

[9] = test system: surinam grass; experiment: Test B pre/postemergence surinam grass; type: in vivo, Brachiaria decumbens
How it was run: as §1

[10] = test system: smallflower flatsedge; experiment: Test B flood test smallflower flatsedge; type: in vivo, Cyperus difformis
How it was run: as §2

[11] = test system: bedstraw; experiment: Test B pre/postemergence bedstraw; type: in vivo, Galium aparine; conditions: Preemergence; for Bedstraw plant response rating: scale of 0 to 10 where 0 is no effect and 10 is complete control
How it was run: as §1

[12] = test system: pigweed; experiment: Test B pre/postemergence pigweed; type: in vivo, Amaranthus retroflexus; conditions: for Redroot pigweed plant response rating: scale of 0 to 10 where 0 is no effect and 10 is complete control
How it was run: as §1

[13] = test system: sugar beet; experiment: Test B pre/postemergence sugar beet; type: in vivo, Beta vulgaris; conditions: for Sugarbeets plant response rating: scale of 0 to 10 where 0 is no effect and 10 is complete control
How it was run: as §1

[14] = test system: purple nutsedge; experiment: Test B pre/postemergence purple nutsedge; type: in vivo, Cyperus rotundus; conditions: for Nutsedge plant response rating: scale of 0 to 10 where 0 is no effect and 10 is complete control
How it was run: as §1

[15] = test system: wild oat; experiment: Test B pre/postemergence wild oat; type: in vivo, Avena fatua; conditions: for Wild oats plant response rating: scale of 0 to 10 where 0 is no effect and 10 is complete control
How it was run: as §1

[16] = test system: rape; experiment: Test B pre/postemergence rape; type: in vivo, Brassica napus; conditions: for Rape plant response rating: scale of 0 to 10 where 0 is no effect and 10 is complete control
How it was run: as §1

[17] = Postemergence, Rate 125 g/ha, scale 0 to 10, 0 is no effect, 10 is complete control
[18] = Preemergence, Rate 62 g/ha, scale 0 to 10 (0 no effect, 10 complete control)
[19] = Rate 500 g/ha, Postemergence, scale 0 to 10, 0 no effect, 10 complete control
[20] = Preemergence, Rate 250 g/ha, scale of 0 to 10 where 0 is no effect and 10 is complete control
[21] = Preemergence, Rate 500 g/ha, scale of 0 to 10 where 0 is no effect and 10 is complete control
[22] = Rate 62 g/ha, Postemergence, scale of 0 to 10 where 0 is no effect and 10 is complete control
[23] = Rate 250 g/ha, Postemergence, scale of 0 to 10 where 0 is no effect and 10 is complete control
[24] = Postemergence (flood test), Rate 125 g/ha, scale 0 to 10, 0 is no effect, 10 is complete control
[25] = Rate 62 g/ha, Postemergence (flood test species), scale of 0 to 10 where 0 is no effect and 10 is complete control
[26] = Rate 62 g/ha, flood test species, Pre-emergence, visual evaluation after twelve to sixteen days
[27] = Rate 125 g/ha, Pre-emergence, flood test species, scale 0 to 10 where 0 is no effect and 10 is complete control
[28] = Rate 250 g/ha, Pre-emergence, flood-test species, scale 0 to 10, 0 is no effect, 10 is complete control
[29] = Rate 500 g/ha, listed under Postemergence (flood test species), scale 0 to 10, 0 no effect, 10 complete control
[30] = Rate 500 g/ha, Pre-emergence, flood test species, scale 0 to 10 (0 no effect, 10 complete control)

For CCC(CC)n1c(=O)on(C(=O)N(c2ccccc2)C(C)C)c1=O [Compound 354], the “Plant response rating, Wheat” value [1, 17] was 0, the “Plant response rating, Wheat” value [1, 18] was 0 and the “Wheat plant response rating (0 to 10 scale)” value ([1]; Preemergence, Rate 125 g/ha) was 0. The “Wheat plant response rating” value ([1]; Preemergence, Rate 250 g/ha) was 0, the “Wheat plant response rating” value ([1]; Preemergence, Rate 500 g/ha) was 2 and the “Wheat plant response rating” value ([1]; Rate 62 g/ha, Postemergence) was 0. The “Plant response rating, Wheat” value [1, 19] was 0, the “Plant response rating, Cocklebur” value [2, 17] was 0 and the “Plant response rating, Cocklebur” value [2, 18] was 0. The “Cocklebur plant response rating (0 to 10 scale)” value ([2]; Preemergence, Rate 125 g/ha) was 0, the “Cocklebur plant response rating” value ([2]; Preemergence, Rate 250 g/ha) was 0 and the “Cocklebur plant response rating” value ([2]; Rate 62 g/ha, Postemergence) was 0. For the same molecule, the “Plant response rating, Cocklebur” value [2, 19] was 1, the “Plant response rating, Blackgrass” value [3, 17] was 5 and the “Plant response rating, Blackgrass” value [3, 18] was 3. The “Blackgrass plant response rating (0 to 10 scale)” value ([3]; Preemergence, Rate 125 g/ha) was 4, the “Blackgrass plant response rating” value [3, 20] was 8 and the “Blackgrass plant response rating” value [3, 21] was 9. For the same molecule, the “Blackgrass plant response rating” value [3, 22] was 3, the “Plant response rating, Blackgrass” value [3, 23] was 7 and the “Plant response rating, Blackgrass” value [3, 19] was 9. For the same molecule, the “Plant response rating, Giant foxtail” value [4, 17] was 4, the “Plant response rating, Giant foxtail” value [4, 18] was 10 and the “Giant foxtail plant response rating (0 to 10 scale)” value ([4]; Preemergence, Rate 125 g/ha) was 10. The “Giant foxtail plant response rating” value ([4]; Preemergence, Rate 250 g/ha) was 10, the “Giant foxtail plant response rating” value ([4]; Preemergence, Rate 500 g/ha) was 10 and the “Giant foxtail plant response rating” value ([4]; Rate 62 g/ha, Postemergence) was 0. For the same molecule, the “Plant response rating, Giant foxtail” value [4, 19] was 9, the “Plant response rating, Soybean” value [5, 17] was 5 and the “Plant response rating, Soybean” value [5, 18] was 0. The “Soybean plant response rating (0 to 10 scale)” value ([5]; Preemergence, Rate 125 g/ha) was 0, the “Soybean plant response rating” value ([5]; Preemergence, Rate 250 g/ha) was 0 and the “Soybean plant response rating” value ([5]; Preemergence, Rate 500 g/ha) was 1. For the same molecule, the “Soybean plant response rating” value ([5]; Rate 62 g/ha, Postemergence) was 3, the “Plant response rating, Soybean” value [5, 19] was 7 and the “Plant response rating, Barnyardgrass” value [6, 24] was 4. The “Barnyardgrass plant response rating” value [6, 25] was 0, the “Plant response rating, Barnyardgrass (0 to 10 scale, 0 is no effect, 10 is complete control)” value [6, 26] was 0 and the “Barnyardgrass plant response rating” value [6, 27] was 0. For the same molecule, the “Plant response rating, Barnyardgrass” value ([6]; Rate 250 g/ha, Postemergence (flood test species), scale of 0 to 10 where 0 is no effect and 10 is complete control) was 7, the “Barnyardgrass plant response rating” value [6, 28] was 0 and the “Plant response rating, Barnyardgrass” value [6, 29] was 9. For the same molecule, the “Barnyardgrass plant response rating” value [6, 30] was 0, the “Plant response rating, Ducksalad” value [7, 24] was 3 and the “Ducksalad plant response rating” value [7, 25] was 0. The “Plant response rating, Ducksalad (0 to 10 scale, 0 is no effect, 10 is complete control)” value [7, 26] was 0, the “Ducksalad plant response rating” value [7, 27] was 0 and the “Ducksalad plant response rating” value [7, 28] was 0. The “Plant response rating, Ducksalad” value [7, 29] was 5, the “Ducksalad plant response rating” value [7, 30] was 0 and the “Plant response rating, Morningglory” value [8, 17] was 5. The “Plant response rating, Morningglory” value [8, 18] was 0, the “Morningglory plant response rating (0 to 10 scale)” value ([8]; Preemergence, Rate 125 g/ha) was 0 and the “Morningglory plant response rating” value ([8]; Preemergence, Rate 250 g/ha) was 0. The “Morningglory plant response rating” value ([8]; Preemergence, Rate 500 g/ha) was 0, the “Morningglory plant response rating” value ([8]; Rate 62 g/ha, Postemergence) was 0 and the “Plant response rating, Morningglory” value [8, 19] was 8. For the same molecule, the “Plant response rating, B. signalgrass” value [9, 17] was 0, the “Plant response rating, B. signalgrass” value [9, 18] was 1 and the “B. signalgrass plant response rating (0 to 10 scale, 0 is no effect, 10 is complete control)” value ([9]; Preemergence, Rate 125 g/ha) was 5. For the same molecule, the “B. signalgrass plant response rating” value [9, 20] was 5, the “B. signalgrass plant response rating” value [9, 21] was 5 and the “B. signalgrass plant response rating” value [9, 22] was 0. The “Plant response rating, B. signalgrass” value [9, 23] was 0, the “Plant response rating, B. signalgrass” value [9, 19] was 2 and the “Plant response rating, S. Flatsedge” value [10, 24] was 8. For the same molecule, the “S. Flatsedge plant response rating” value [10, 25] was 5, the “Plant response rating, S. Flatsedge (0 to 10 scale, 0 is no effect, 10 is complete control)” value [10, 26] was 0 and the “S. Flatsedge plant response rating” value [10, 27] was 0. For the same molecule, the “S. Flatsedge plant response rating” value [10, 28] was 0, the “Plant response rating, S. Flatsedge” value [10, 29] was 9 and the “S. Flatsedge plant response rating” value [10, 30] was 0. The “Plant response rating, Bedstraw” value ([11]; Rate 62 g/ha, scale 0 to 10 (0 no effect, 10 complete control)) was 0, the “Bedstraw plant response rating (0 to 10 scale)” value ([11]; Rate 125 g/ha) was 0 and the “Bedstraw plant response rating” value ([11]; Rate 250 g/ha) was 0. For the same molecule, the “Bedstraw plant response rating” value ([11]; Rate 500 g/ha) was 0, the “Plant response rating, Redroot pigweed” value [12, 17] was 3 and the “Plant response rating, Redroot pigweed” value [12, 18] was 5. The “Redroot pigweed plant response rating (0 to 10 scale)” value ([12]; Preemergence, Rate 125 g/ha) was 7, the “Redroot pigweed plant response rating” value ([12]; Preemergence, Rate 250 g/ha) was 10 and the “Redroot pigweed plant response rating” value ([12]; Preemergence, Rate 500 g/ha) was 10. The “Redroot pigweed plant response rating” value ([12]; Rate 62 g/ha, Postemergence) was 2, the “Plant response rating, Redroot pigweed” value [12, 19] was 7 and the “Plant response rating, Sugarbeets” value [13, 17] was 1. For the same molecule, the “Plant response rating, Sugarbeets” value [13, 18] was 0, the “Sugarbeets plant response rating (0 to 10 scale)” value ([13]; Preemergence, Rate 125 g/ha) was 0 and the “Sugarbeets plant response rating” value ([13]; Preemergence, Rate 250 g/ha) was 2. For the same molecule, the “Sugarbeets plant response rating” value ([13]; Preemergence, Rate 500 g/ha) was 6, the “Sugarbeets plant response rating” value ([13]; Rate 62 g/ha, Postemergence) was 0 and the “Plant response rating, Sugarbeets” value [13, 19] was 3. The “Plant response rating, Nutsedge” value [14, 17] was 0, the “Plant response rating, Nutsedge” value [14, 18] was 0 and the “Nutsedge plant response rating (0 to 10 scale)” value ([14]; Preemergence, Rate 125 g/ha) was 0. The “Nutsedge plant response rating” value ([14]; Preemergence, Rate 250 g/ha) was 0, the “Nutsedge plant response rating” value ([14]; Preemergence, Rate 500 g/ha) was 0 and the “Nutsedge plant response rating” value ([14]; Rate 62 g/ha, Postemergence) was 0. For the same molecule, the “Plant response rating, Nutsedge” value [14, 19] was 0, the “Plant response rating, Wild oats” value [15, 17] was 0 and the “Plant response rating, Wild oats” value [15, 18] was 0. For the same molecule, the “Wild oats plant response rating (0 to 10 scale)” value ([15]; Preemergence, Rate 125 g/ha) was 4, the “Wild oats plant response rating” value ([15]; Preemergence, Rate 250 g/ha) was 6 and the “Wild oats plant response rating” value ([15]; Preemergence, Rate 500 g/ha) was 8. The “Wild oats plant response rating” value ([15]; Rate 62 g/ha, Postemergence) was 0, the “Plant response rating, Wild oats” value [15, 19] was 3 and the “Plant response rating, Rape” value [16, 17] was 0. The “Plant response rating, Rape” value [16, 18] was 0, the “Rape plant response rating (0 to 10 scale)” value ([16]; Preemergence, Rate 125 g/ha) was 1 and the “Rape plant response rating” value ([16]; Preemergence, Rate 250 g/ha) was 5. The “Rape plant response rating” value ([16]; Preemergence, Rate 500 g/ha) was 5, the “Rape plant response rating” value ([16]; Rate 62 g/ha, Postemergence) was 0 and the “Plant response rating, Rape” value [16, 19] was 4.
